Results on 17 compounds are retold here after ChEMBL document CHEMBL2311336 (Bioorg Med Chem Lett, 2013).

The first test deals with E3 ubiquitin-protein ligase Mdm2 (Homo sapiens, UniProt Q00987, L33E). The test is described as follows: Inhibition of human His-tagged p53 (1 to 132 amino acid residues)/GST-tagged MDM2 L33E mutant (25 to 108 amino acid residues) interaction by HTRF assay.
E3 ubiquitin-protein ligase Mdm2, sequence (Q00987 whole entry L33E, the tested form may be a part): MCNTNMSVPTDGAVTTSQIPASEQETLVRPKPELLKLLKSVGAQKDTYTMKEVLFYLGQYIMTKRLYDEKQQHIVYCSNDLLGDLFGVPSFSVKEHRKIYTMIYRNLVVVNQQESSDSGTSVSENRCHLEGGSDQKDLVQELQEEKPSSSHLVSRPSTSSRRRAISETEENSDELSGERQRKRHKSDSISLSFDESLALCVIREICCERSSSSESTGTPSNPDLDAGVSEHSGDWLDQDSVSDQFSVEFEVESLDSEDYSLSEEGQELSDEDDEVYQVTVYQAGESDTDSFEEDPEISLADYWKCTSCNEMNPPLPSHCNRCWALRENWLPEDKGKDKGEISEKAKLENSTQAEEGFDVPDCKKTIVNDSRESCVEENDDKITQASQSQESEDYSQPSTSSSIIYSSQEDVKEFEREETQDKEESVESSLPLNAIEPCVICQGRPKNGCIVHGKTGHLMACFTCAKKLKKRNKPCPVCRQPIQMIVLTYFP
The term IC50 denotes the midpoint of a concentration-inhibition curve. A high value points to a need for much substance. `CC(C)C1=C(C(=O)N2CC[C@H]2C(=O)N(C)C)SC2=N[C@@](C)(c3ccc(Cl)cc3)[C@@H](c3ccc(Cl)cc3)N21` registered an IC50 of 140 nM.

The next test deals with Tumour suppressor p53/oncoprotein Mdm2 (Homo sapiens, UniProt Q00987). The test is described as follows: Inhibition of human His-tagged p53/GST-tagged MDM2 interaction after 60 mins by chemiluminescence assay. Type of test: protein assay.
Tumour suppressor p53/oncoprotein Mdm2, sequence (P04637 whole entry): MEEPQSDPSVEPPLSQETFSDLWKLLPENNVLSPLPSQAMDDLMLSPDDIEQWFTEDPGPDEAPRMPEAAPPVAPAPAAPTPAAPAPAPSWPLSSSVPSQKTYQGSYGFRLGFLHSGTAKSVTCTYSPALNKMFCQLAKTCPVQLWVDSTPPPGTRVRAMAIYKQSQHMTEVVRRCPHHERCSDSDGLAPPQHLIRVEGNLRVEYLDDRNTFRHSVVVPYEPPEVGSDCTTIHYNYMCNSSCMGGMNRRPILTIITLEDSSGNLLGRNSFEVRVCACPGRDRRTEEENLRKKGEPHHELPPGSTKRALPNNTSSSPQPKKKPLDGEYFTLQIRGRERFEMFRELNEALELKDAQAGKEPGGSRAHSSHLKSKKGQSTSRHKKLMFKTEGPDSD
Tumour suppressor p53/oncoprotein Mdm2, sequence (Q00987 whole entry): as the sequence (Q00987 whole entry L33E, the tested form may be a part) above, with E33L counted along it
The compound `CC(C)C1=C(C(=O)N2CCNC(=O)C2)SC2=N[C@@](C)(c3ccc(Cl)cc3)[C@@H](c3ccc(Cl)cc3)N21` displayed an IC50 of 92 nM. Still for that read-out and setting: as for `CC(C)C1=C(C(=O)N2CCNC(=O)C2)SC2=N[C@](C)(c3ccc(Cl)cc3)[C@H](c3ccc(Cl)cc3)N21`, the figure is 1500 nM; as for `CC(C)C1=C(C(=O)N(C)C)SC2=N[C@@](C)(c3ccc(Cl)cc3)[C@@H](c3ccc(Cl)cc3)N21`, 26 nM. `COCCN(C)C(=O)[C@@H]1CCCN1C(=O)C1=C(C(C)C)N2C(=N[C@@](C)(c3ccc(Cl)cc3)[C@H]2c2ccc(Cl)cc2)S1` registered an IC50 of 46 nM. `CC(C)C1=C(C(=O)N2CCC[C@H]2C(=O)N2CCOCC2)SC2=N[C@@](C)(c3ccc(Cl)cc3)[C@@H](c3ccc(Cl)cc3)N21` had an IC50 of 26 nM. `CC(=O)N1CCN(C(=O)[C@@H]2CCCN2C(=O)C2=C(C(C)C)N3C(=N[C@@](C)(c4ccc(Cl)cc4)[C@H]3c3ccc(Cl)cc3)S2)CC1` had a half-inhibitory concentration (IC50) of 66 nM. As to `CC(C)C1=C(C(=O)N2CCC[C@H]2C(=O)N2CCNC(=O)C2)SC2=N[C@@](C)(c3ccc(Cl)cc3)[C@@H](c3ccc(Cl)cc3)N21`, the half-inhibitory concentration (IC50) came out at 79 nM.

Compound `CC(C)C1=C(C(=O)N2CCC[C@H]2C(=O)N2CCN(C)CC2)SC2=N[C@@](C)(c3ccc(Cl)cc3)[C@@H](c3ccc(Cl)cc3)N21` yielded an IC50 of 23 nM. Compound `CC(C)C1=C(C(=O)N2CCC[C@H]2C(=O)N2C[C@@H](C)N[C@@H](C)C2)SC2=N[C@@](C)(c3ccc(Cl)cc3)[C@@H](c3ccc(Cl)cc3)N21` displayed an IC50 of 37 nM. Turning to `CC(C)C1=C(C(=O)N2CCCC[C@H]2C(=O)N(C)C)SC2=NC(C)(c3ccc(Cl)cc3)C(c3ccc(Cl)cc3)N21` (mixture of isomers), the IC50 is 170 nM. As to `CC(C)C1=C(C(=O)N2CCNC(=O)C2)SC2=NC(C)(c3ccc(Cl)cc3)C(c3ccc(Cl)cc3)N21` (racemic), the 50% inhibitory concentration (IC50) turned out to be 410 nM. `CC(C)C1=C(C(N)=O)SC2=NC(C)(c3ccc(Cl)cc3)C(c3ccc(Cl)cc3)N21` (racemic): 780 nM corresponded to half-maximal inhibition (IC50). `CNC(=O)C1=C(C(C)C)N2C(=NC(C)(c3ccc(Cl)cc3)C2c2ccc(Cl)cc2)S1` (racemic): the half-inhibitory concentration (IC50) came to 1100 nM. `CC(C)C1=C(C(=O)N(C)C)SC2=NC(C)(c3ccc(Cl)cc3)C(c3ccc(Cl)cc3)N21` (racemic): the IC50 was found to be 42 nM. Regarding `CC(C)C1=C(C(=O)N2CCCC2)SC2=NC(C)(c3ccc(Cl)cc3)C(c3ccc(Cl)cc3)N21` (racemic), half-maximal inhibition (IC50) required 200 nM. `CC(C)C1=C(C(=O)N2CNC(=O)C2)SC2=NC(C)(c3ccc(Cl)cc3)C(c3ccc(Cl)cc3)N21` (racemic): the half-inhibitory concentration (IC50) was determined as 940 nM.
